# Experiments:
# wheat [1] = assay: Test A preemergence; format: in vivo, Triticum aestivum; conditions: 0 to 100 scale (0 no effect, 100 complete control)
# Outline: (§1)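 Test chemicals, formulated in a surfactant-containing non-phytotoxic solvent mixture, are applied either as a directed soil spray to newly planted seeds or as a postemergence application to plants at the one- to two-leaf stage (2–10 cm). All plants grow in a loam soil and sand blend.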
# barnyardgrass [2] = assay: Test B flooded paddy test; format: in vivo, Echinochloa crus-galli; conditions: 250 g ai/ha, applied to paddy water at 2-leaf stage, visual rating after 13 to 15 d, scale 0 (no effect) to 100 (complete control)
# Outline: (§2)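 Pots were flooded to 3 cm above the soil at treatment, and compounds were applied directly into the paddy water. That depth was held throughout. After 13 to 15 d in a greenhouse, plants were rated visually against untreated controls.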
# velvetleaf [3] = assay: Test A postemergence; format: in vivo, Abutilon theophrasti; conditions: 0 to 100 scale (0 no effect, 100 complete control), approx. 10 d
# Outline: as §1
# morningglory [4] = assay: Test A postemergence; format: in vivo, Ipomoea spp.; conditions: 0 to 100 scale (0 no effect, 100 complete control), approx. 10 d
# Outline: as §1
# pigweed [5] = assay: Test A preemergence; format: in vivo, Amaranthus retroflexus; conditions: 0 to 100 scale (0 no effect, 100 complete control)
# Outline: as §1
# barnyardgrass [6] = assay: Test C flooded paddy test; format: in vivo, Echinochloa crus-galli; conditions: Flood, applied to paddy water, rating after 13 to 15 d
# From the text: (§3) At time of treatment, test pots were flooded to 3 cm above the soil surface, treated by application of test compounds directly to the paddy water, and then maintained at that water depth for the duration of the test. Treated plants and controls were maintained in a greenhouse for 13 to 15 d, after which time all species were compared to controls and visually evaluated. […] A dash (-) response means no test result.
# rice [7] = assay: Test C flooded paddy test; format: in vivo, Oryza sativa; conditions: Flood, applied to paddy water, rating after 13 to 15 d
# From the text: as §3
# crabgrass, large [8] = assay: Test A preemergence; format: in vivo, Digitaria sanguinalis; conditions: 0 to 100 scale (0 no effect, 100 complete control)
# Outline: as §1
# morningglory [9] = assay: Test A preemergence; format: in vivo, Ipomoea spp.; conditions: 0 to 100 scale (0 no effect, 100 complete control)
# Outline: as §1
# velvetleaf [10] = assay: Test A preemergence; format: in vivo, Abutilon theophrasti; conditions: 0 to 100 scale (0 no effect, 100 complete control)
# Outline: as §1
# barnyardgrass [11] = assay: Test A preemergence; format: in vivo, Echinochloa crus-galli; conditions: 0 to 100 scale (0 no effect, 100 complete control)
# Outline: as §1
# barnyardgrass [12] = assay: Test A postemergence; format: in vivo, Echinochloa crus-galli; conditions: 0 to 100 scale (0 no effect, 100 complete control), approx. 10 d
# Outline: as §1
# crabgrass, large [13] = assay: Test A postemergence; format: in vivo, Digitaria sanguinalis; conditions: 0 to 100 scale (0 no effect, 100 complete control), approx. 10 d
# Outline: as §1
# corn [14] = assay: Test A postemergence; format: in vivo, Zea mays; conditions: 0 to 100 scale (0 no effect, 100 complete control), approx. 10 d
# Outline: as §1
# rice [15] = assay: Test B flooded paddy test; format: in vivo, Oryza sativa; conditions: 250 g ai/ha, applied to paddy water at 2-leaf stage, visual rating after 13 to 15 d, scale 0 (no effect) to 100 (complete control)
# Outline: as §2
# wheat [16] = assay: Test A postemergence; format: in vivo, Triticum aestivum; conditions: 0 to 100 scale (0 no effect, 100 complete control), approx. 10 d
# Outline: as §1
# foxtail, giant [17] = assay: Test A preemergence; format: in vivo, Setaria faberii; conditions: 0 to 100 scale (0 no effect, 100 complete control)
# Outline: as §1
# sedge, umbrella [18] = assay: Test B flooded paddy test; format: in vivo, Cyperus difformis; conditions: 250 g ai/ha, applied to paddy water at 2-leaf stage, visual rating after 13 to 15 d, scale 0 (no effect) to 100 (complete control)
# Outline: as §2
# corn [19] = assay: Test A preemergence; format: in vivo, Zea mays; conditions: 0 to 100 scale (0 no effect, 100 complete control)
# Outline: as §1
# foxtail, giant [20] = assay: Test A postemergence; format: in vivo, Setaria faberii; conditions: 0 to 100 scale (0 no effect, 100 complete control), approx. 10 d
# Outline: as §1
# ducksalad [21] = assay: Test C flooded paddy test; format: in vivo, Heteranthera limosa; conditions: Flood, applied to paddy water, rating after 13 to 15 d
# From the text: as §3
# ducksalad [22] = assay: Test B flooded paddy test; format: in vivo, Heteranthera limosa; conditions: 250 g ai/ha, applied to paddy water at 2-leaf stage, visual rating after 13 to 15 d, scale 0 (no effect) to 100 (complete control)
# Outline: as §2
# pigweed [23] = assay: Test A postemergence; format: in vivo, Amaranthus retroflexus; conditions: 0 to 100 scale (0 no effect, 100 complete control), approx. 10 d
# Outline: as §1
# sedge, umbrella [24] = assay: Test C flooded paddy test; format: in vivo, Cyperus difformis; conditions: Flood, applied to paddy water, rating after 13 to 15 d
# From the text: as §3
smiles,measurement,setting,value
CCCc1nc(-c2ccc(F)c(F)c2)nn1Cc1ccnc(C(F)(F)F)c1 [Compound 23],"Plant response rating, Wheat",wheat [1]; 125 g ai/ha,20
same,"Plant response rating, Wheat","wheat [1]; 500 g ai/ha, approx. 10 d",40
same,"Plant response rating, Barnyardgrass, Flood",barnyardgrass [2],90
same,"Plant response rating, Velvetleaf",velvetleaf [3]; 125 g ai/ha,70
same,"Plant response rating, Velvetleaf",velvetleaf [3]; 500 g ai/ha,100
same,"Plant response rating, Morningglory",morningglory [4]; 125 g ai/ha,50
same,"Plant response rating, Morningglory",morningglory [4]; 500 g ai/ha,90
same,"Plant response rating, Pigweed",pigweed [5]; 125 g ai/ha,100
same,"Plant response rating, Pigweed","pigweed [5]; 500 g ai/ha, approx. 10 d",100
same,Barnyardgrass plant response rating (0 to 100),barnyardgrass [6]; 31 g ai/ha,0
same,Barnyardgrass plant response rating (0 to 100),barnyardgrass [6]; 62 g ai/ha,10
same,Barnyardgrass plant response rating (0 to 100),barnyardgrass [6]; 125 g ai/ha,15
same,Barnyardgrass plant response rating (0 to 100),barnyardgrass [6]; 250 g ai/ha,20
same,Rice plant response rating (0 to 100),rice [7]; 31 g ai/ha,0
same,Rice plant response rating (0 to 100),rice [7]; 62 g ai/ha,0
same,Rice plant response rating (0 to 100),rice [7]; 125 g ai/ha,0
same,Rice plant response rating (0 to 100),rice [7]; 250 g ai/ha,0
same,"Plant response rating, Crabgrass, Large","crabgrass, large [8]; 125 g ai/ha",100
same,"Plant response rating, Crabgrass, Large","crabgrass, large [8]; 500 g ai/ha, approx. 10 d",100
same,"Plant response rating, Morningglory",morningglory [9]; 125 g ai/ha,50
same,"Plant response rating, Morningglory","morningglory [9]; 500 g ai/ha, approx. 10 d",80
same,"Plant response rating, Velvetleaf",velvetleaf [10]; 125 g ai/ha,30
same,"Plant response rating, Velvetleaf","velvetleaf [10]; 500 g ai/ha, approx. 10 d",80
same,"Plant response rating, Barnyardgrass",barnyardgrass [11]; 125 g ai/ha,50
same,"Plant response rating, Barnyardgrass","barnyardgrass [11]; 500 g ai/ha, approx. 10 d",100
same,"Plant response rating, Barnyardgrass",barnyardgrass [12]; 125 g ai/ha,50
same,"Plant response rating, Barnyardgrass",barnyardgrass [12]; 500 g ai/ha,70
same,"Plant response rating, Crabgrass, Large","crabgrass, large [13]; 125 g ai/ha",70
same,"Plant response rating, Crabgrass, Large","crabgrass, large [13]; 500 g ai/ha",90
same,"Plant response rating, Corn",corn [14]; 125 g ai/ha,30
same,"Plant response rating, Corn",corn [14]; 500 g ai/ha,60
same,"Plant response rating, Rice, Flood",rice [15],25
same,"Plant response rating, Wheat",wheat [16]; 125 g ai/ha,30
same,"Plant response rating, Wheat",wheat [16]; 500 g ai/ha,50
same,"Plant response rating, Foxtail, Giant","foxtail, giant [17]; 125 g ai/ha",100
same,"Plant response rating, Foxtail, Giant","foxtail, giant [17]; 500 g ai/ha, approx. 10 d",100
same,"Plant response rating, Sedge, Umbrella, Flood","sedge, umbrella [18]",95
same,"Plant response rating, Corn",corn [19]; 125 g ai/ha,20
same,"Plant response rating, Corn","corn [19]; 500 g ai/ha, approx. 10 d",30
same,"Plant response rating, Foxtail, Giant","foxtail, giant [20]; 125 g ai/ha",70
same,"Plant response rating, Foxtail, Giant","foxtail, giant [20]; 500 g ai/ha",90
same,Ducksalad plant response rating (0 to 100),ducksalad [21]; 31 g ai/ha,30
same,Ducksalad plant response rating (0 to 100),ducksalad [21]; 62 g ai/ha,45
same,Ducksalad plant response rating (0 to 100),ducksalad [21]; 125 g ai/ha,75
same,Ducksalad plant response rating (0 to 100),ducksalad [21]; 250 g ai/ha,80
same,"Plant response rating, Ducksalad, Flood",ducksalad [22],90
same,"Plant response rating, Pigweed",pigweed [23]; 125 g ai/ha,100
same,"Plant response rating, Pigweed",pigweed [23]; 500 g ai/ha,100
same,"Sedge, Umbrella plant response rating (0 to 100)","sedge, umbrella [24]; 31 g ai/ha",80
same,"Sedge, Umbrella plant response rating (0 to 100)","sedge, umbrella [24]; 62 g ai/ha",85
same,"Sedge, Umbrella plant response rating (0 to 100)","sedge, umbrella [24]; 125 g ai/ha",90
same,"Sedge, Umbrella plant response rating (0 to 100)","sedge, umbrella [24]; 250 g ai/ha",95
